Assay results published in ChEMBL document CHEMBL3352660, “Design, synthesis and pharmacological evaluation of novel polycyclic heteroarene ethers as PDE10A inhibitors: part II” (Bioorg Med Chem Lett, 2014).

Test system: Rattus norvegicus
Test: Antipsychotic activity in Sprague-Dawley rat psychosis model assessed as reversal of MK-801-induced stereotypy at 1 mg/kg, po administered 2 hrs prior to MK-801 challenge measured every 5 mins for 1 hr starting 15 mins post MK-801 injection relative to vehicle-treated control
Assay type: functional

## Cn1cc(-c2ccc(Oc3nccnc3-c3ccncc3)cc2)c2ncccc21
  Activity: 95%
